Assays:
Format in all cases: physicochemical
[1] = Particle size distribution by dynamic light scattering (micelle formation); settings: DLS
Experimental: In a test tube, surfactin sodium salt (hereinafter, referred to as “SFNa”) and methanol (5 mL) or ethanol (5 mL) were added so that SFNa concentration became 2 mass %. The mixture was stirred using a vortex mixer for 3 minutes. A particle size distribution of the particles which were contained in each obtained dispersion was measured using a dynamic light scattering measuring device (product name: DLS-7000, manufactured by OTSUKA ELECTRON Co., Ltd.). In the measurement, Ar laser (λ=488 nm) was used as a light source and a scattering angle was adjusted to 90°. The result of the methanol dispersion is shown by FIG. 1 and the result of the ethanol dispersion is shown by FIG. 2.
First, an association behavior of SFNa was evaluated by a dynamic light scattering method as the above-described Example 1. As FIG. 4, a micelle having an average particle diameter of 44.8±7.7 nm was observed.

[2] = Surface tension measurement at 25° C. (DY-500); settings: for surface tension reducing ability: 2 mass % in 20 vol % ethanol aqueous solution
Experimental: Then, an experiment for confirmation of effect of reducing surface free energy by SFNa in organic solvent was carried out. Specifically, SFNa and diethylene glycol (10 mL) was added in a test tube so that SFNa concentration became 2 mass % similarly to the above-described Example 1. The mixture was stirred using a vortex mixer for 3 minutes. The dispersion was transferred to a petri dish and left to stand. The surface tension was measured at 25° C. using a high function surface tension measuring device (“DY-500”, manufactured by Kyowa Interface Science Co., Ltd.). In addition, the surface tensions of diethylene glycol only and 2 mass % diethylene glycol solution of sodium dodecyl sulfate, i.e. “SDS”, were similarly measured as control.
An experiment for confirmation of effect of reducing surface free energy by SFNa in a mixed solvent of water and a water-miscible solvent was also carried out. Specifically, SFNa and 20 vol % ethanol aqueous solution (10 mL) was added in a test tube so that SFNa concentration became 2 mass % similarly to the above-described Example 1. The mixture was stirred using a vortex mixer for 3 minutes. In addition, 2 mass % SDS solution was obtained as control by dissolving SDS in 20 vol % ethanol aqueous solution.
In addition, the surface tension reducing ability of SFNa and SDS in 20 vol % ethanol aqueous solution was evaluated at 25° C. similarly to the above-described Example 2.
Furthermore, surface tension was measured similarly to the above-described Example 2 except that the organic solvent was changed from diethylene glycol to dimethylsulfoxide, i.e. DMSO.
An experiment for confirmation of effect of reducing surface free energy by SFNa in a mixed solvent which contained acetone as a water-miscible solvent was also carried out, since the secondary structure formation was confirmed in the above-described Example 5. Specifically, SFNa and 20 vol % or 50 vol % acetone aqueous solution (10 mL) were added in a test tube so that SFNa concentration became 1 mass % similarly to the above-described Example 1. The mixture was stirred using a vortex mixer for 3 minutes. In addition, 1 mass % SDS solution was obtained as control by dissolving SDS in 20 vol % or 50 vol % acetone aqueous solution. The dispersion was transferred to a petri dish and left to stand similarly to the above-described Example 2. The surface tension was measured at 25° C. using a high function surface tension measuring device (“DY-500”, manufactured by Kyowa Interface Science Co., Ltd.).

[3] = Standing for one day at 25° C. and polarization microscope observation of deposits
Experimental: In addition, the above each dispersion was left to stand for one day at 25° C. […] The depositions were observed using a polarization microscope (“ECLIPSE E600”, manufactured by NIKON CORPORATION). The result is shown as FIG. 3. […] A lamellar liquid crystal may incorporate both of a hydrophilic substance and a lipophilic substance inside, since a lamellar liquid crystal has both of a hydrophilic part and a lipophilic part.

[4] = Secondary structure formation by circular dichroism dispersion meter
Experimental: Similarly to the above-described Example 1, SFNa and acetone (5 mL) was added in a test tube. The mixture was stirred using a vortex mixer for 3 minutes in order to prepare 0.1 mass %, 0.5 mass % or 1 mass % SFNa solution in acetone. Then, secondary structure formation of SFNa in the prepared acetone solutions was measured using a circular dichroism dispersion meter (“J-820”, manufactured by JASCO Corporation).
Similarly to the above-described Example 5, methanol (1 mL) and SFNa were measured off in a test tube, and the mixture was stirred using a vortex mixer for 3 minutes in order to prepare 0.01 to 1 mass % SFNa solutions in methanol. Then, secondary structure formation of SFNa in the prepared […] solutions was measured using a circular dichroism dispersion meter (“J-820”, manufactured by JASCO Corporation).
Similarly to the above-described Example 5, ethanol (1 mL) and SFNa were measured off in a test tube, and the mixture was stirred using a vortex mixer for 3 minutes in order to prepare 0.05 to 1 mass % SFNa solutions in ethanol. Then, secondary structure formation of SFNa in the prepared ethanol solutions was measured using a circular dichroism dispersion meter (“J-820”, manufactured by JASCO Corporation).
Similarly to the above-described Example 5, tetrahydrofuran (1 mL) and SFNa were measured off in a test tube, and the mixture was stirred using a vortex mixer for 3 minutes in order to prepare 0.5 mass % or 1 mass % SFNa solutions in tetrahydrofuran. Then, secondary structure formation of SFNa in the prepared tetrahydrofuran solutions was measured using a circular dichroism dispersion meter (“J-820”, manufactured by JASCO Corporation).

[5] = 2 mass % in 20 vol % ethanol aqueous solution
[6] = 1 mass % in 20 vol % acetone aqueous solution
[7] = 1 mass % in 50 vol % acetone aqueous solution

average particle diameter of micelle [1, 5] [nm]	average particle diameter of micelle ([1]; 2 mass % in ethanol) [nm]	average particle diameter of micelle ([1]; 2 mass % in methanol) [nm]	surface tension reducing effect [2, 6]	surface tension reducing ability [2]	Surface tension ([2]; 2 mass % in DMSO) [mN/m]	Surface tension ([2]; 2 mass % in diethylene glycol) [mN/m]	appearance of dispersion after standing ([3]; 2 mass % ethanol dispersion)	appearance of dispersion after standing ([3]; 2 mass % methanol dispersion)	secondary structure formation (CD, negative peak near 200 nm) ([4]; 0.01 to 1 mass % in methanol)	secondary structure formation (CD, negative peak near 200 nm) ([4]; 0.05 to 1 mass % in ethanol)	secondary structure formation (CD, negative peak near 200 nm) ([4]; 0.1, 0.5 or 1 mass % in acetone)	secondary structure formation (CD, negative peak near 200 nm) ([4]; 0.5 or 1 mass % in tetrahydrofuran)	micelle observation [1, 5]	Molecule	surface tension reducing effect [2, 7]	polarization microscope observation of deposits ([3]; 2 mass % ethanol dispersion)
44.8±7.7	956.8±286.5	1035.1±230.7	clearly superior to SDS	could clearly reduce the surface tension	39.2	39.6	there were deposits	remained transparent	forms secondary structure	forms secondary structure	forms secondary structure	forms secondary structure		surfactin sodium salt [SFNa]	the surface tension could be clearly reduced	a Maltese Cross image which is characteristic of lamellar liquid crystal was observed
			reduced the surface tension	could not reduce the surface tension	43.4	44.5							a micelle cannot be observed	CCCCCCCCCCCCOS(=O)(=O)[O-].[Na+] [SDS, sodium dodecyl sulfate, reference compound]	could not reduce the surface tension	

From US20160193131A1, “METHOD FOR REDUCING SURFACE FREE ENERGY AND COMPOSITION HAVING REDUCED SURFACE FREE ENERGY” (KANEKA CORPORATION, priority 2013, published 2016)
